Reference: PMC5374412, “Development of Pharmacophore Model for Indeno[1,2-b]indoles as Human Protein Kinase CK2 Inhibitors and Database Mining” (Pharmaceuticals, 2017)
pIC50: −log10 of the molar value.

Molecular target: T1, human protein kinase CK2 (holoenzyme) (Homo sapiens, UniProt P68400)
T1 construct: gene CSNK2A1; CK2 holoenzyme, recombinant, expressed in E. coli; with CK2 regulatory subunit beta (CSNK2B), as part of the holoenzyme
Assay: capillary electrophoresis-based kinase activity assay, peptide substrate RRRDDDSDDD
Format: biochemical

T1 sequence (P68400 whole entry): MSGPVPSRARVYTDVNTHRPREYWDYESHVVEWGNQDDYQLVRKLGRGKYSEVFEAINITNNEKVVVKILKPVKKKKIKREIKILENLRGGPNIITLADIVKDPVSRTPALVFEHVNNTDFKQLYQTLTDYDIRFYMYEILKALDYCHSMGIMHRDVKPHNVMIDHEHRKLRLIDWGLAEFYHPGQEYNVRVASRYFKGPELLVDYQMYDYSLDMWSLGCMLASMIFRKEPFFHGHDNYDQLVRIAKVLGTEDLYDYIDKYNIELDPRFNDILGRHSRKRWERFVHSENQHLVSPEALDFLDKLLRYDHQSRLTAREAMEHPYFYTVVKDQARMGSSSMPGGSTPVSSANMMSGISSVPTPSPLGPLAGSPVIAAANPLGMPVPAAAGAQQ
T1 sequence (P67870 2-215 partner): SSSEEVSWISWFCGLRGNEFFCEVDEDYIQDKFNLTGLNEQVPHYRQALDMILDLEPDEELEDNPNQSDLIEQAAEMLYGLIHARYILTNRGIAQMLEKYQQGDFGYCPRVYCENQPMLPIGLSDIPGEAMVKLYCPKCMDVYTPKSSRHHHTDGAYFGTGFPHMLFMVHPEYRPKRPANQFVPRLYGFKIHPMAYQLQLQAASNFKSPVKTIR

With `COC1=CC(=O)c2c(c(O)c3oc4cc(OC)cc(C)c4c(=O)c3c2O)C1=O` [ZINC05765165, 6,11-dihydroxy-3,8-dimethoxy-1-methylbenzo[b]xanthene-7,10,12-trione] the pIC50 was 5.91.
